Experiments:
[1] = test system: mice pain response induced by hot plate; assay: Mice pain response induced by hot plate; format: in vivo, ICR mice; conditions: hot plate 55°C
Procedure: Female ICR mice (20±2) g were placed on an intelligent hot plate at 55±0.5° C., and latency (s) that the plantar of mice touched the hot plate until the occurrence of a hind paws licking response served as a pain threshold indicator; the mice (response latency <5 s or >30 s) or jumping mice were eliminated.
Grouping and administration were the same as those in Example 40.
The mice were continuously administered intragastrically for 7 consecutive days; the pain threshold of each group of mice was respectively determined once at 30, 60, 90 and 120 min after the final administration; the pain threshold greater than 60 s was calculated by 60 s.

[2] = test system: mice with inflammatory pain; assay: Pain threshold of mice with inflammatory pain (complete Freund's adjuvant); format: in vivo, SD mice; conditions: complete Freund's adjuvant paw model
Procedure: […] (180±20) g were injected with a complete Freund’s adjuvant (50 µL/piece) at the right rear plantar of mice, and mice in the control group were injected with the corresponding volume of 0.5% sodium carboxymethylcellulose to establish a paw edema inflammatory pain model. After modeling, the mice were administered for 7 d continuously, and administered intragastrically once per day. Pain thresholds (s) of the mice were respectively determined on the 1st, 3rd and 7th day before administration and after modeling at different periods of time.
Grouping and administration were the same as those of Example 40.

[3] = test system: reserpine-induced mice migraine; assay: Reserpine-induced mice migraine; format: in vivo, ICR mice; conditions: for Blood coagulation time: reserpine 0.2 mg/kg sc mice, 1 h after final administration; for brain tissue 5-HT / Times of tail suspension (struggling times within 2 min): reserpine mice; for Times of tail suspension (struggling times within 2 min): 9th day
Procedure: The mice in the blank control group and model group were administered intragastrically via a solvent from the 5th day after modeling, and the rest groups of mice were respectively administered corresponding medicaments and doses for intragastric administration for 10 consecutive days; 1 h later after the final administration, the mice were weighed; blood was taken at inner canthus to detect blood coagulation time; whole blood was taken, and cerebrum was taken on an ice and preserved at -20° C. for the subsequent experiment.
Behavioral test: tail suspension activity was performed; the position 1 cm away from the tail of the mice was glued by an adhesive tape on the 9th day of the test, and the adhesive tape was penetrated by a steel needle, and hung in a dark box such that the mice were hung upside down; then the mice struggling times (total number of overturning from hanging) within 2 min were observed.
The mice were weighed 1 h later after the final administration; blood of inner canthus was taken via a capillary to detect the blood coagulation time.
Blood was taken to detect the content of 5-HT in serum via high-performance liquid chromatography. Cerebrum was taken on an ice and precooled and cleaned slightly with 0.5% sodium carboxymethylcellulose, and then sucked dry with a filter paper, and placed into a cryogenic tube, and preserved at -20° C. for further use, then the content of 5-HT in brain tissues was detected by high performance liquid chromatography.
5-HT test method: a sample was precipitated with 10% perchloric acid solution according to 1:1, and then centrifuged to take supernatant for test. Chromatographic conditions: the chromatographic column is a SHIMADZU VP-ODS C18 column (250*4.6 mm, 5 um), the mobile phase is a methanol-0.01 mol/L potassium acetate buffer solution (10:90, V/V, PH is adjusted to 4.00 with 0.2 mol/L citric acid) for gradient elution; the column temperature is 25° C., flow rate is 1.00 ml/min and test wavelength is 275 nm.

ulcerative colitis mice = assay: Mice ulcerative colitis (DSS); format: in vivo, BALB/c mice; conditions: DSS mice; for Colon length: four periods; for IL-1 content: serum, ELISA
Excerpt: Healthy male SPF-level BALB/c mice (8-week old and body mass: (20±2) g).
Modeling: the mice were randomly divided into […] at the end of the quarantine, 10 pieces for each group. The mice in the normal group drank normal water freely, and the rest groups of mice drank 1.0%-1.5% DSS solution freely for modeling, 7 d later after modeling, the mice in the modeling group drank normal water freely for 7 d, and 14 d served as a modeling period for four continuous periods, and the mice in the modeling group were administered at the same time.
End point of the experiment: experimental administration was performed for four periods, and dissection was performed on the 3rd and 4th day of the recovery period of the 4th period.
Test indicators: the mice were weighed twice a week after the beginning of the administration; diarrhea and hematochezia of the mice were observed, and times of hematochezia were recorded.
At the end of the experiment, the mice were dissected and weighed, and narcotized to take blood, then serum was preserved at -80° C. Spleen was taken and weighed to calculate the spleen index. The content of IL-1β in serum was detected via ELISA. Colorectum was cut and taken to measure the length of colorectum, then immobilized by formaldehyde and dyed by HE to detect the pathological change.

[4] = test system: mice writhing caused by acetic acid; assay: Mice writhing caused by acetic acid; conditions: for Writhing times: 1 h before 0.7% acetic acid ip, within 20 min; for Latent time: time to first writhing
Procedure: Each compound was prepared into a suspension by 0.5% sodium carboxymethylcellulose respectively, and then set according to the dose, and each administration group was administered intragastrically; the model group was administered intragastrically an equal volume of 0.5% sodium carboxymethylcellulose.
Mice were intraperitoneally injected with acetic acid to cause a large area and more lasting painful stimuli in deep enterocoelia, causing mice to produce writhing responses. After being administered for 1 h, each dose group was intraperitoneally injected with 0.7% acetic acid-normal saline solution (0.1 ml/10 g).
The time (pain latent time) that the mice started to appear writhing after being intraperitoneally injected with acetic acid was recorded.
The writhing response times of each mouse within 20 min were recorded after injecting acetic acid to cause pain, and then, the writhing inhibition ratio of each administration group was calculated.
Writhing inhibition ratio = [(writhing times of the control group -writhing times of the administration group)/writhing times of the control group] × 100%
Experimental data is shown by x±s and subjected to variance analysis by SPSS 15.0 software.

Structure (SMILES): O=C(Nc1ccc(Cl)cc1)C1CCN(C(=O)c2ccc(O)cc2)CC1 [MAGLZ-II-10]
- Pain threshold ([1]; high dose 30 mg/kg ig 7 d, 30 min after final administration): 17.73 ± 6.20 s
- Pain threshold ([1]; high dose 30 mg/kg ig 7 d, 60 min): 19.77 ± 6.73 s
- Pain threshold ([1]; high dose 30 mg/kg ig 7 d, 90 min): 25.25 ± 7.01 s
- Pain threshold ([1]; high dose 30 mg/kg ig 7 d, 120 min): 24.90 ± 5.73 s
- Pain threshold ([1]; low dose 7.5 mg/kg ig 7 d, 30 min after final administration): 16.37 ± 6.00 s
- Pain threshold ([1]; low dose 7.5 mg/kg ig 7 d, 60 min): 17.93 ± 5.75 s
- Pain threshold ([1]; low dose 7.5 mg/kg ig 7 d, 90 min): 19.24 ± 4.72 s
- Pain threshold ([1]; low dose 7.5 mg/kg ig 7 d, 120 min): 19.14 ± 4.63 s
- Pain threshold ([1]; middle dose 15 mg/kg ig 7 d, 30 min after final administration): 16.67 ± 5.97 s
- Pain threshold ([1]; middle dose 15 mg/kg ig 7 d, 60 min): 18.79 ± 5.95 s
- Pain threshold ([1]; middle dose 15 mg/kg ig 7 d, 90 min): 22.43 ± 5.31 s
- Pain threshold ([1]; middle dose 15 mg/kg ig 7 d, 120 min): 20.60 ± 4.64 s
- Pain threshold ([2]; high dose 30 mg/kg ig once per day, 0 d): 12.93 ± 2.26 s
- Pain threshold ([2]; high dose 30 mg/kg ig once per day, 1 d): 5.67 ± 0.93 s
- Pain threshold ([2]; high dose 30 mg/kg ig once per day, 3 d): 7.95 ± 0.66 s
- Pain threshold ([2]; high dose 30 mg/kg ig once per day, 7 d): 8.93 ± 0.61 s
- Pain threshold ([2]; low dose 7.5 mg/kg ig once per day, 0 d): 12.71 ± 2.47 s
- Pain threshold ([2]; low dose 7.5 mg/kg ig once per day, 1 d): 5.59 ± 0.89 s
- Pain threshold ([2]; low dose 7.5 mg/kg ig once per day, 3 d): 7.15 ± 0.59 s
- Pain threshold ([2]; low dose 7.5 mg/kg ig once per day, 7 d): 8.33 ± 0.57 s
- Pain threshold ([2]; middle dose 15 mg/kg ig once per day, 0 d): 12.77 ± 2.48 s
- Pain threshold ([2]; middle dose 15 mg/kg ig once per day, 1 d): 5.62 ± 0.84 s
- Pain threshold ([2]; middle dose 15 mg/kg ig once per day, 3 d): 7.18 ± 0.55 s
- Pain threshold ([2]; middle dose 15 mg/kg ig once per day, 7 d): 8.36 ± 0.59 s
- Blood coagulation time ([3]; high dose 30 mg/kg ig 10 d): 148.00±30.23 S
- Blood coagulation time ([3]; low dose 7.5 mg/kg ig 10 d): 113.25±23.31 S
- Blood coagulation time ([3]; middle dose 15 mg/kg ig 10 d): 125.25±19.31 S
- brain tissue 5-HT ([3]; high dose 30 mg/kg ig 10 d): 0.90 ± 0.21 nmol/g
- Times of tail suspension (struggling times within 2 min) ([3]; high dose 30 mg/kg ig): 11.63±1.85
- brain tissue 5-HT ([3]; low dose 7.5 mg/kg ig 10 d): 0.85 ± 0.20 nmol/g
- Times of tail suspension (struggling times within 2 min) ([3]; low dose 7.5 mg/kg ig): 9.25±2.66
- brain tissue 5-HT ([3]; middle dose 15 mg/kg ig 10 d): 1.05 ± 0.14 nmol/g
- Times of tail suspension (struggling times within 2 min) ([3]; middle dose 15 mg/kg ig): 10.63±1.19
- Total times of hematochezia within the four periods (ulcerative colitis mice; high dose 30 mg/kg ig): 35.15±4.52
- Colon length (ulcerative colitis mice; high dose 30 mg/kg ig): 6.35±0.61 cm
- IL-1 content (ulcerative colitis mice; high dose 30 mg/kg ig): 47.25 ± 6.37 pg/mL
- Total times of hematochezia within the four periods (ulcerative colitis mice; low dose 7.5 mg/kg ig): 38.40±5.02
- Colon length (ulcerative colitis mice; low dose 7.5 mg/kg ig): 5.92±0.66 cm
- IL-1 content (ulcerative colitis mice; low dose 7.5 mg/kg ig): 51.81 ± 7.86 pg/mL
- Total times of hematochezia within the four periods (ulcerative colitis mice; middle dose 15 mg/kg ig): 38.20±7.83
- Colon length (ulcerative colitis mice; middle dose 15 mg/kg ig): 5.72±0.60 cm
- IL-1 content (ulcerative colitis mice; middle dose 15 mg/kg ig): 50.83 ± 7.79 pg/mL
- Writhing times ([4]; high dose 30 mg/kg ig): 24.8±11.1^∗
- Latent time ([4]; high dose 30 mg/kg ig): 306.4±90.2^∗ s
- Writhing times ([4]; low dose 7.5 mg/kg ig): 34.0±9.1
- Latent time ([4]; low dose 7.5 mg/kg ig): 235.4 ± 59.6 s
- Writhing times ([4]; middle dose 15 mg/kg ig): 32.8±11.6
- Latent time ([4]; middle dose 15 mg/kg ig): 246.2 ± 69.5 s
